{"source": "paper PMC10022577", "about": "(Chem, 2023)", "target": "T1, AlbS (albireticulene synthase) (Streptomyces albireticuli, UniProt A0A2A2D8W5)", "T1 sequence (A0A2A2D8W5 1-369)": "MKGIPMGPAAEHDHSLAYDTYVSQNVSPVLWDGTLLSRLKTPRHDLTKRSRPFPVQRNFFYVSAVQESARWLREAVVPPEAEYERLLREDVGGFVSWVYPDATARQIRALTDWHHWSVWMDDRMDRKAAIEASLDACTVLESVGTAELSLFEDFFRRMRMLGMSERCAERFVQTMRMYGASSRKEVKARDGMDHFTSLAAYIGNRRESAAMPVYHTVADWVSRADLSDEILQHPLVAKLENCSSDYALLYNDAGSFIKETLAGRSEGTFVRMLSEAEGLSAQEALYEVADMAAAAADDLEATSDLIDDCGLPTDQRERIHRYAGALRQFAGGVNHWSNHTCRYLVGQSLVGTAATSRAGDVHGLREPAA", "test": "GC-MS product analysis", "format": "biochemical", "conditions": "products: five sesquiterpenes (3-7)", "data": [{"smiles": "CC(C)=CCC/C(C)=C/CC/C(C)=C/COP(=O)(O)OP(=O)(O)O", "note": "[FPP]", "values": [{"measurement": "GC-MS product analysis", "result": "GC-MS analysis revealed that FPP was converted into five sesquiterpenes"}]}]}
